Results taken from patent publication US10226514B2, “Methods and compositions for reducing blood glucose levels” (The Children's Medical Center Corporation, priority 2011, dated 2019).

Columns and labels:
XBP1s [1] = assay: XBP1s protein levels in Ad-XBP1s-infected MEFs (western blot); format: cell-based, mouse
Method: (§1) MEF cells were from American Type Tissue Collection (ATCC). These cells were grown in Dulbecco's Modified Eagel Medium (DMEM) supplemented with 10% fetal bovine serum (FBS), 10 U/ml penicillin and 1 μg/ml streptomycin at 37° C. and 5% CO2. Fao cells were maintained in RPMI 1640 medium (Invitrogen) supplemented with 10% fetal bovine serum (FBS), 10 U/ml penicillin and 1 μg/ml streptomycin.
(§2) Adenovirus expressing XBP1s T48A, XBP1s S61A, XBP1s T48A/S61A and MKK6Glu were produced with ViraPower Adenoviral Expression System (Invitrogen) according to manufacturer's instruction. Briefly, pAD-XBP1s T48A, pAD-XBP1s S61A, pAd-XBP1s T48A/S61A and pAd-MKK6Glu were linearized by restriction endonuclease digestion with PacI and transfected to 293A cells by Lipofectamine. The media was changed with fresh media every other day until the cytopathic effect was observed. When cytopathic effect reached to 80%, cells were collected by centrifugation. The pellet was resuspended in PBS and subjected to freezing and thawing cycles at −80° C. and 37° C. for 4 times. The supernatant containing the virus was prepared by centrifugation at 4,000 rpm for 20 min at room temperature. Ad-XBP s and Ad-Cre were generated as described previously (Ozcan, L., et al. (2009) Cell metabolism 9:35-51). For infection, cells were incubated with adenovirus in reduced volume of medium containing 1% FBS and antibiotics. Cells were gently rocked every 15 min for 1 h to increase efficiency of infection, and then fresh medium were added and cells were incubated for additional 15 h or 23 h.
Cells were lysed in lysis buffer (25 mM Tris-HCl, pH 7.4; 10 mM NaF; 10 mM Na4P207; 2 mM Na3VO4; 1 mM EGTA; 1 mM EDTA; 1% NP-40; 10 μg/ml Leupeptin; 10 μg/ml Aprotinin; 1 mM PMSF and 20 nM Okadaic acid). After 20 min-rotation at 4° C., cell lysates were centrifuged at 13,200 rpm for 20 min at 4° C. Supernatants were collected and protein concentration was quantified by using Protein Assay Kit (Bio-Rad). The concentrations of protein were normalized with lysis buffer to have equivalent amounts of protein and volume. Protein was denatured by boiling at 100° C. for 5 min in Laemmli buffer. The lysates were cooled to room temperature before loading for western blot analysis.
Western blot analysis was performed as previously described (Ozcan, L., et al. (2009) Cell metabolism 9:35-51). Samples from cell lysates or tissue lysates were resolved by SDS-PAGE and then transferred to polyvinylidene fluoride (PVDF) membrane. After 1 h blocking at room temperature using 10% blocking reagent (Roche), membrane was incubated overnight with primary antibody in Tris-buffered saline solution/Tween (TBST) containing 10% blocking reagent at 4° C. After the incubation, membrane was washed three times in TBST and incubated with secondary antibody for 1 h at room temperature. After three-time washing in TBST, membrane was developed using a chemiluminescence assay system (Roche) and exposed to Kodak films. Relative protein levels were quantified by Image J program.

p38 MAPK = assay: Fasting/re-feeding of lean mice treated with p38 MAPK inhibitor; format: in vivo, mouse; details: 2 mg/kg/day intraperitoneally three days
Method: For liver tissue, a kit from Thermo Scientific (Rockford, Ill.) was used according to the manufacturer's instruction. Liver tissues were cut into small pieces, washed with PBS, and separated from PBS by centrifugation at 500×g for 5 minutes. Collected tissues were resuspended by company-supplied CER I buffer and homogenized with a Dounce homogenizer. Homogenized tissues were vortexed and incubated on ice for 10 minutes. Following CER II buffer addition, tissues were vortexed for 5 seconds, incubated for 1 minute on ice, vortexed again, and then centrifuged for 5 minutes at maximum speed in a microcentrifuge. The supernatant (cytoplasmic fraction) was saved for later analysis. The pellets were resuspended with supplied NER buffer and undergone a series of multiple vortexing (15 seconds) and incubation on ice (10 minutes) for a total of 40 minutes. After 10-minute centrifugation, the supernatant (nuclear fraction) was collected and analyzed with immunoblotting.
Tissues were homogenized with a bench-top homogenizer (Polytron, PT2100) in ice-cold tissue lysis buffer (25 mM Tris-HCl, pH 7.4; 100 mM NaF; 50 mM Na4P207; 10 mM Na3VO4; 10 mM EGTA; 10 mM EDTA; 1% NP-40; 10 μg/ml Leupeptin; 10 μg/ml Aprotinin; 2 mM PMSF and 20 nM Okadaic acid). After homogenization, lysates were rotated for 1 h at 4° C. and then subjected to centrifugation at 13,200 rpm for 20 min at 4° C. The lipid layer was removed and the supernatant was transferred into Eppendorf tubes for centrifugation. This process was repeated for 2 times to get rid of lipid completely. Protein concentration was quantified by using Protein Assay Kit (Bio-Rad). Equivalent protein concentration in each sample was prepared and boiled at 100° C. for 5 min in Laemmli buffer. The lysates were cooled to room temperature before loading for western blot analysis.

XBP1s [2] = assay: Co-expression of kinase constructs with XBP1s in transfected cells; format: cell-based; details: p38 MAPK inhibitor 10 μM
Text: To unravel the molecular mechanisms underlying the above observations, several different approaches were taken to explore whether activation of JNK, which is one of the most dominant signaling elements in SAPK signaling, affects XBP1s levels and nuclear translocation. […] It is known that MAPK kinase kinase (MKK) 4 and 7 are upstream kinases responsible for JNK activation (Tournier, C., et al. (2001) Genes Dev 15:1419-1426; Brancho, D., et al. (2003) Genes Dev 17:1969-1978) and anisomycin or TNFα cannot activate JNK in MKK4 and 7 double knock out cells (MKK4,7^−/−) (Tournier, C., et al. (2001) Genes Dev 15:1419-1426; Schaeffer, H. J. & Weber, M. J. (1999) Mol Cell Biol 19:2435-2444). In order to determine whether XBP1s can be regulated by anisomycin treatment in MKK4,7^−/− cells, these cells, along with their controls, were treated with anisomycin after XBP is expression. […] Furthermore, the experiments were repeated in JNK1,2^−/− and MKK4,7^−/− cells with TNFα. […] Finally, an MKK7-JNK1 fusion protein, previously shown to be a specific activator of JNK (Lei, K., et al. (2002) Mol Cell Biol 22:4929-4942), was used to investigate whether activation of JNK alone can have effect on XBP1s.
A constitutively active form of MKK6 (MKK6Glu), one of the upstream kinases of p38 MAPK, was previously generated by mutation of Ser207 and […] to glutamate. […]

XBP1s [3] = assay: FBS-induced XBP1s nuclear translocation in starved cells; format: cell-based, mouse; details: 16 h starved cells, inhibitor 10 μM before 10% FBS
Method: XBP1s is generated in the liver when an animal is refed after a fasting period (Park, S. W., et al. (2010) Nature Med 16:429-437), likely mainly due to increased metabolic overloading. To create a metabolic overloading model in cells, following a 16 h starvation in medium without fetal bovine serum (FBS), cells were reincubated for 15, 30 and 60 minutes with medium containing 10% FBS, following which total and nuclear proteins or mRNA were isolated and used to analyze various parameters, including p38 MAPK activation, XBP1s nuclear migration, and splicing. When the cells were starved, then stimulated with medium containing 10% FBS, there was a robust increase in XBP1s splicing and nuclear translocation, as well as in activation of p38 MAPK (FIG. 10A). […] The same experiment was then repeated in p38α^−/− and MKK3,6^−/− cells. […] Moreover, FBS-induced XBP i s nuclear translocation was severely impaired in the MKK3,6^−/− cells (FIG. 10C).

XBP1s [4] = assay: XBP1s levels in Ad-XBP1s-infected Fao cells; format: cell-based; details: Ad-XBP1s-infected Fao cells (rat hepatoma)
Method: as §1
as §2, with “Ad-XBP s and Ad-Cre were generated as described previously (Ozcan, L., et al. (2009) Cell metabolism 9:35-51). For infection, cells were incubated with adenovirus in reduced volume of medium containing 1% FBS and antibiotics. Cells were gently rocked every 15 min for 1 h to increase efficiency of infection, and then fresh medium were added and cells were incubated for additional 15 h or 23 h.” left out
Western blot analysis was performed as previously described (Ozcan, L., et al. (2009) Cell metabolism 9:35-51). […] Relative protein levels were quantified by Image J program.

XBP1s [5] = assay: Cytoplasmic and nuclear XBP1s protein in cells; format: cell-based, mouse; details: mutant XBP1s expressed in cells, anisomycin 25 ng/ml, vs WT
Method: Cytoplasmic and nuclear protein fractions were extracted from cells by using nuclear protein extraction kit from Active Motif (Carlsbad, Calif.). Cells were maintained in 10 cm tissue culture dishes for nuclear/cytoplasmic extraction. After removal of the media, cells were washed with ice-cold phosphate buffered saline (PBS) containing phosphatase inhibitors. Subsequently, 3 ml of ice-cold PBS with phosphatase inhibitors was added and then cells were scrapped out of the dish. Collected cells were separated from PBS by centrifugation for 5 minutes at 500 rpm and resuspended with 500 μl of 1× hypotonic buffer. After 15-minute incubation in hypotonic buffer on ice, 25 μl of supplied detergent was added and cells were vortexed 10 seconds. Cells were centrifuged for 30 seconds at 14,000×g and supernatant (cytoplasmic fraction) was saved for further analysis. Remaining pellet, which contains nuclei, were resuspended with 50 μl of provided complete lysis buffer with 1 mM dithiothreitol (DTT), vortexed 10 seconds, and incubated for 30 minutes on ice. After 30-second vortexing and 10-minute centrifugation at 14,000×g, the supernatant was collected and analyzed as nuclear fraction.

CCOc1nc(NC(=O)Cc2cc(OC)ccc2OC)cc(N)c1C#N [JNK inhibitor VIII]
effect on anisomycin-mediated upregulation of XBP1s protein levels (XBP1s [1]; JNK inhibitor 10 μM 30 minutes, then anisomycin 25 ng/ml two hours): no effect

C[S+]([O-])c1ccc(-c2nc(-c3ccncc3)c(-c3ccc(F)cc3)[nH]2)cc1 (stereo not drawn) [SB203580]
anisomycin-induced increase in XBP1s levels (XBP1s [1]; SB203580 10 μM 30 minutes, then anisomycin 25 ng/ml two hours): completely abolished | GRP78 expression increase in liver after re-feeding (p38 MAPK): but not in the inhibitor-treated group | XBP1s mRNA levels in the liver of re-fed mice (p38 MAPK): significantly increased | ATF2 phosphorylation (p38 MAPK; lean C57BL6 mice): dramatic reduction in phosphorylation | XBP1s nuclear translocation in the liver after re-feeding (p38 MAPK; lean C57BL6 mice, starved 24 hours, refed one hour): completely absent | effect of MKK6Glu on XBP1s (XBP1s [2]): blocked the effect of MKK6Glu on XBP1s | FBS-induced XBP1s nuclear translocation (XBP1s [3]): completely eliminated XBP1s nuclear translocation | XBP1s splicing (XBP1s [3]): without altering XBP1s splicing

TNFα
XBP1s protein levels (XBP1s [1]; Ad-XBP1s-infected MEFs, increasing doses, two hours): markedly increased XBP1s protein levels | XBP1s protein levels (XBP1s [1]; JNK1,2−/− cells): significant increase in XBP1s levels | XBP1s levels (XBP1s [1]; MKK4,7−/− cells): significant increase in XBP1s levels | XBP1s levels (XBP1s [4]): dramatically upregulating their XBP1s levels

B1: T48A: mutant XBP1s with Thr48 residue mutated to alanine (protein)
chain: MVVVAAAPSAATAAPKVLLLSGQPASGGRALPLMVPGPRAAGSEASGAPQARKRQRLTHLSPEEKALRRKLKNRVAAQTARDRKKARMSELEQQVVDLEEENHKLQLENQLLREKTHGLVVENQELRTRLGMDTLDPDEVPEVEAKGSGVRLVAGSAESAAGAGPVVTSPEHLPMDSDTVASSDSESDILLGILDKLDPVMFFKCPSPESASLEELPEVYPEGPSSLPASLSLSVGTSSAKLEAINELIRFDHVYTKPLVLEIPSETESQTNVVVKIEEAPLSSSEEDHPEFIVSVKKEPLEDDFIPELGISNLLSSSHCLRPPSCLLDAHSDCGYEGSPSPFSDMSSPLGTDHSWEDTFANELFPQLISV
decrease of XBP1s nuclear translocation (XBP1s [5]): about 49%

B2: S61A: amino acid substitution mutant XBP1s at Ser61 (protein)
chain: MVVVAAAPSAATAAPKVLLLSGQPASGGRALPLMVPGPRAAGSEASGTPQARKRQRLTHLAPEEKALRRKLKNRVAAQTARDRKKARMSELEQQVVDLEEENHKLQLENQLLREKTHGLVVENQELRTRLGMDTLDPDEVPEVEAKGSGVRLVAGSAESAAGAGPVVTSPEHLPMDSDTVASSDSESDILLGILDKLDPVMFFKCPSPESASLEELPEVYPEGPSSLPASLSLSVGTSSAKLEAINELIRFDHVYTKPLVLEIPSETESQTNVVVKIEEAPLSSSEEDHPEFIVSVKKEPLEDDFIPELGISNLLSSSHCLRPPSCLLDAHSDCGYEGSPSPFSDMSSPLGTDHSWEDTFANELFPQLISV
decrease of XBP1s nuclear translocation (XBP1s [5]): about 79%
